Test results taken from US10981905B2, “Heteroaryl-substituted sulfonamide compounds and their use as therapeutic agents” (Xenon Pharmaceuticals Inc., priority 2018, dated 2021).
Structures can show the parent of a compound that is named as a salt.

Tests used:
[1] = biological target: Nav1.6 (Homo sapiens (Human), UniProt Q9UQD0); experiment: Sodium Influx Assay (Flux), Nav1.6; type: cell-based; settings: Trex HEK293 cells, ANG2 dye, inactivated state
[2] = biological target: Nav1.1 (Homo sapiens (Human), UniProt P35498); experiment: Sodium Influx Assay (Flux), Nav1.1; type: cell-based; settings: Trex HEK293 cells, ANG2 dye, inactivated state
[3] = biological target: Nav1.5 (Homo sapiens (Human), UniProt Q14524); experiment: Sodium Influx Assay (Flux), Nav1.5; settings: read-out: Flux NaV1.5 IC50; sodium influx assay, Trex HEK293 cells, ANG2 dye, inactivated state
Chain of Nav1.5 (Q14524 other isoform, or with tags, fused parts or gaps): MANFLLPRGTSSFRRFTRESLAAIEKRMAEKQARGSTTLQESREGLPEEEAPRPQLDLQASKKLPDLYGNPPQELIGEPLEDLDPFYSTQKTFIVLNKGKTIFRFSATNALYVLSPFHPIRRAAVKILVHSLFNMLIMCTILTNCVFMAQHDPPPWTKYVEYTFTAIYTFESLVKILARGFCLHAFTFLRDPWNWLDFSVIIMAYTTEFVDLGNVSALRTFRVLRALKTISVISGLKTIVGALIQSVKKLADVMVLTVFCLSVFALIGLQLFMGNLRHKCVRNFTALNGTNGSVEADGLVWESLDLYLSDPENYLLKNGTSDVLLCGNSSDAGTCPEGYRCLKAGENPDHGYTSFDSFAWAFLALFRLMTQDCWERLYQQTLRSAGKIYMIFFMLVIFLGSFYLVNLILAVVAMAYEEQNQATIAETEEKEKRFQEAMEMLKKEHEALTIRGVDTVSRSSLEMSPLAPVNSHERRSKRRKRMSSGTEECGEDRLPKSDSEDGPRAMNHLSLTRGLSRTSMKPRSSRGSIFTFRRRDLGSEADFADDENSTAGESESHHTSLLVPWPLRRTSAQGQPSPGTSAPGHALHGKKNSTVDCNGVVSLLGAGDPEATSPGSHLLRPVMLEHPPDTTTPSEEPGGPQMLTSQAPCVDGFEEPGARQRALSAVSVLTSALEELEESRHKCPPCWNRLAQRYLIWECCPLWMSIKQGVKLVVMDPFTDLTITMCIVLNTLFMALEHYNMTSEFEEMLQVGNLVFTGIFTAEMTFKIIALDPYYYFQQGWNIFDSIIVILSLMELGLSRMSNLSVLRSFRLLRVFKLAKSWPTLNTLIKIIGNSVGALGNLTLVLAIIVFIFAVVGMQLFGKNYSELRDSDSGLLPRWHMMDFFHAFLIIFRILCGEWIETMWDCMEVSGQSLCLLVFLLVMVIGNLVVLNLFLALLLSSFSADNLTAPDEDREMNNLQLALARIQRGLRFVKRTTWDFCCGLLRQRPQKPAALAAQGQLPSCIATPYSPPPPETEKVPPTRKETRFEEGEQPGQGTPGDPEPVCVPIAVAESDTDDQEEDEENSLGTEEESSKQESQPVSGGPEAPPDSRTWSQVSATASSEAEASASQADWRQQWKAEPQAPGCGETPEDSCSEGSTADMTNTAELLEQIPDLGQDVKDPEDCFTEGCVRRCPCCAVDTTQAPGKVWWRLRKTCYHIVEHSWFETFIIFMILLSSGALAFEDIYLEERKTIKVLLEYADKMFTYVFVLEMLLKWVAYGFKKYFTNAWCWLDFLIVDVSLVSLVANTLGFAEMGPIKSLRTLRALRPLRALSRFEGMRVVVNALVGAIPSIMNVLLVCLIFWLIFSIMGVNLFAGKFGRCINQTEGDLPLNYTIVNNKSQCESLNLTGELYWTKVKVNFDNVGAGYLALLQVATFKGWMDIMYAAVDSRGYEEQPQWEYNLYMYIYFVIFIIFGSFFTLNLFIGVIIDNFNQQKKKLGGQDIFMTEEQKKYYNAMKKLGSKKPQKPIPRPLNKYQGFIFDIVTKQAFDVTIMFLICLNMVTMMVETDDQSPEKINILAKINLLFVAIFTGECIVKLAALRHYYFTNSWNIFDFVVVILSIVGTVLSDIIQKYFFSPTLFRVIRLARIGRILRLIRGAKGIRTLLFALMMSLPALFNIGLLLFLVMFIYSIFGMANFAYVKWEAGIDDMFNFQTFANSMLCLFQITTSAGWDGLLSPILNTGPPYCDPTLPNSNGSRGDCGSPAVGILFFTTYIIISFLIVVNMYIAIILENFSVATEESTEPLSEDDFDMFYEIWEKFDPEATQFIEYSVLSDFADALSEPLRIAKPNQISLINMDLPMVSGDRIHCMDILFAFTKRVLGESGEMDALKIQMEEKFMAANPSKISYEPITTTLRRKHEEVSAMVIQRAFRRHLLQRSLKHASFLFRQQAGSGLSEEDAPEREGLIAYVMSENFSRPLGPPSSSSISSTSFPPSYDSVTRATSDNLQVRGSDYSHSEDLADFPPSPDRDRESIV

SMILES | IC50 [1] | IC50 [2] | IC50 [3]
C[C@H](Nc1ncc(S(=O)(=O)Nc2cscn2)cc1Cl)c1cc(Cl)ccc1F [Example 1, (S)-5-chloro-6-((1-(5-chloro-2-fluorophenyl)ethyl)amino)-N-(thiazol-4-yl)pyridine-3-sulfonamide] | 2820 nM | 5 µM | 5.57 µM
Cc1nc(S(=O)(=O)Nc2cscn2)ccc1NCc1c(F)cccc1CN1CCC1(C)C [Example 8, 5-((2-((2,2-dimethylazetidin-1-yl)methyl)-6-fluorobenzyl)amino)-6-methyl-N-(thiazol-4-yl)pyridine-2-sulfonamide trifluoroacetic acid salt] | 719 nM | 30 µM | 30 µM
Cc1cc(S(=O)(=O)Nc2cccc(F)n2)ncc1NCc1c(F)cccc1CN1CCC1 [Example 9, 5-((2-(azetidin-1-ylmethyl)-6-fluorobenzyl)amino)-N-(6-fluoropyridin-2-yl)-4-methylpyridine-2-sulfonamide] | 917 nM | 30 µM | 21.1 µM
Cc1nc(NCc2c(F)cccc2CN(C)C(C)(C)C)ccc1S(=O)(=O)Nc1cscn1 [Example 10, 6-((2-((tert-butyl(methyl)amino)methyl)-6-fluorobenzyl)amino)-2-methyl-N-(thiazol-4-yl)pyridine-3-sulfonamide formic acid salt] | 5310 nM | 23.6 µM | 7.76 µM
CN(Cc1cccc(F)c1CNc1ncc(S(=O)(=O)Nc2cscn2)cc1Cl)C(C)(C)C [Example 11, 6-((2-((tert-butyl(methyl)amino)methyl)-6-fluorobenzyl)amino)-5-chloro-N-(thiazol-4-yl)pyridine-3-sulfonamide formic acid salt] | 8370 nM | 11.7 µM | 8.87 µM
Cc1cc(S(=O)(=O)Nc2ccsn2)ncc1NCc1c(F)cccc1CN1CCC1 [Example 12, 5-((2-(azetidin-1-ylmethyl)-6-fluorobenzyl)amino)-N-(isothiazol-3-yl)-4-methylpyridine-2-sulfonamide trifluoroacetic acid salt] | 3430 nM | 30 µM | 30 µM
Cc1cc(S(=O)(=O)Nc2cscn2)cnc1NCc1c(F)cccc1CN(C)C(C)(C)C [Example 13, 6-((2-((tert-butyl(methyl)amino)methyl)-6-fluorobenzyl)amino)-5-methyl-N-(thiazol-4-yl)pyridine-3-sulfonamide formic acid salt] | 11300 nM | 14.9 µM | 6.02 µM
Cc1nc(S(=O)(=O)Nc2cscn2)ccc1NCc1c(F)cccc1CN1CC(C)(F)C1 [Example 14, 5-((2-fluoro-6-((3-fluoro-3-methylazetidin-1-yl)methyl)benzyl)amino)-6-methyl-N-(thiazol-4-yl)pyridine-2-sulfonamide] | 382 nM | 13 µM | 24.5 µM
O=S(=O)(Nc1cscn1)c1ccc(NCc2c(F)cccc2CN2CCCC2)c(C(F)F)n1 [Example 18, 6-(difluoromethyl)-5-((2-fluoro-6-(pyrrolidin-1-ylmethyl)benzyl)amino)-N-(thiazol-4-yl)pyridine-2-sulfonamide formic acid salt] | 15 nM | 15.5 µM | 21.4 µM
Cc1sc(S(=O)(=O)Nc2cccc(F)n2)cc1NCc1c(F)cccc1Br [Example 23, 4-((2-bromo-6-fluorobenzyl)amino)-N-(6-fluoropyridin-2-yl)-5-methylthiophene-2-sulfonamide] | 9540 nM | 7.68 µM | 30 µM

Further compounds by falling IC50 [1], results first:

IC50 [1] | IC50 [2] | SMILES | IC50 [3]
13200 nM | 25.8 µM | C[C@H](Nc1ncc(S(=O)(=O)Nc2cscn2)cc1Cl)c1ccccc1F [Example 2, (S)-5-chloro-6-((1-(2-fluorophenyl)ethyl)amino)-N-(thiazol-4-yl)pyridine-3-sulfonamide] | 20.4 µM
8470 nM | 30 µM | O=S(=O)(Nc1cscn1)c1ccc(NCc2c(F)cccc2CN2CCC2)nc1 [Example 5, 6-((2-(azetidin-1-ylmethyl)-6-fluorobenzyl)amino)-N-(thiazol-4-yl)pyridine-3-sulfonamide] | 26.5 µM
5820 nM | 30 µM | Cc1cc(S(=O)(=O)Nc2cscn2)ncc1NCc1c(F)cccc1CN1CCC1 [Example 7, 5-((2-(azetidin-1-ylmethyl)-6-fluorobenzyl)amino)-4-methyl-N-(thiazol-4-yl)pyridine-2-sulfonamide formic acid salt] | 30 µM
4740 nM | 30 µM | Cc1nc(S(=O)(=O)Nc2cscn2)ccc1N[C@@H](C)c1ccccc1F [Example 3, (S)-5-((1-(2-fluorophenyl)ethyl)amino)-6-methyl-N-(thiazol-4-yl)pyridine-2-sulfonamide] | 30 µM
1460 nM | 30 µM | O=S(=O)(Nc1cscn1)c1cc(C(F)F)c(NCc2c(F)cccc2CN2CCCC2)cn1 [Example 17, 4-(difluoromethyl)-5-((2-fluoro-6-(pyrrolidin-1-ylmethyl)benzyl)amino)-N-(thiazol-4-yl)pyridine-2-sulfonamide formic acid salt] | 30 µM
1270 nM | 30 µM | Cc1nc(S(=O)(=O)Nc2cscn2)ccc1NCc1cccc2ccncc12 [Example 16, 5-((isoquinolin-8-ylmethyl)amino)-6-methyl-N-(thiazol-4-yl)pyridine-2-sulfonamide formic acid salt] | 30 µM
296 nM | 30 µM | Cc1nc(S(=O)(=O)Nc2cscn2)ccc1NCc1cccc(F)c1CN1CCC1 [Example 27, 5-((2-(azetidin-1-ylmethyl)-3-fluorobenzyl)amino)-6-methyl-N-(thiazol-4-yl)pyridine-2-sulfonamide trifluoroacetic acid salt] | 30 µM
286 nM | 30 µM | Cc1nc(S(=O)(=O)Nc2cscn2)ccc1NCc1c(F)cccc1CN(C)CC1CC1 [Example 15, 5-((2-(((cyclopropylmethyl)(methyl)amino)methyl)-6-fluorobenzyl)amino)-6-methyl-N-(thiazol-4-yl)pyridine-2-sulfonamide formic acid salt] | 21.6 µM
242 nM | 30 µM | Cc1nc(S(=O)(=O)Nc2cscn2)ccc1NCc1ccccc1CN1CCC1 [Example 26, 5-((2-(azetidin-1-ylmethyl)benzyl)amino)-6-methyl-N-(thiazol-4-yl)pyridine-2-sulfonamide trifluoroacetic acid salt] | 30 µM
221 nM | 30 µM | Cc1nc(S(=O)(=O)Nc2cccc(F)n2)ccc1NCc1c(F)cccc1CN(C)C(C)(C)C [Example 22, 5-((2-((tert-butyl(methyl)amino)methyl)-6-fluorobenzyl)amino)-N-(6-fluoropyridin-2-yl)-6-methylpyridine-2-sulfonamide trifluoroacetic acid salt] | 30 µM
74 nM | 30 µM | Cc1nc(S(=O)(=O)Nc2cscn2)ccc1NCc1c(F)cccc1CN1CC(C)C1 [Example 24, 5-((2-fluoro-6-((3-methylazetidin-1-yl)methyl)benzyl)amino)-6-methyl-N-(thiazol-4-yl)pyridine-2-sulfonamide] | 30 µM
